# What was measured:
# [1] = molecular target: T1, SOS1 catalytic domain (residues 564-1049) (Homo sapiens, UniProt Q07889); assay: Potency Assay: binding affinity to SOS1 using Surface Plasmon Resonance (SPR); design: SOS1 catalytic domain (residues 564-1049) immobilized on a sensor chip; conditions: immobilized SOS1 catalytic domain (residues 564-1049), read-out: SOS1 SPR Equilibrium Kd
# T1 sequence (Q07889 564-1049): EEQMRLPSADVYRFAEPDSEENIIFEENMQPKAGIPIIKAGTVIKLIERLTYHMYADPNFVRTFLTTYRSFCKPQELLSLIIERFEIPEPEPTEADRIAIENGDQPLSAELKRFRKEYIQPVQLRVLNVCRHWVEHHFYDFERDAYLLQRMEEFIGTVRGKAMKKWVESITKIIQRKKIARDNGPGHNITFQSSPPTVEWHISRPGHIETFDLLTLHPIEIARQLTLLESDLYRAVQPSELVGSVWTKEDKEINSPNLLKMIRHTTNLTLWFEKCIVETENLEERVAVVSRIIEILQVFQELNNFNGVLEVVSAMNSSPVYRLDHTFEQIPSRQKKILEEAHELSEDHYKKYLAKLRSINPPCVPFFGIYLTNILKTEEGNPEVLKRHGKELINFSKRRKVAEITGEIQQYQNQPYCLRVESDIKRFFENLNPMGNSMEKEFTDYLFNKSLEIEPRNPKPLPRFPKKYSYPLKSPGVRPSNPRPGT
# Protocol: Data was reported as equilibrium dissociation constant (Kd) values.
# Using a GE Biacore 8K SPR instrument, avi-tagged SOS1 catalytic domain protein was immobilized to a level of approximately 6000 response units (RU) on a streptavidin-coated SPR sensor chip in assay buffer containing 0.01 M HEPES, 0.15 M NaCl and 0.05% v/v Surfactant P20. […] For each test compound, a separate 0 μM sample was generated for use during subsequent double reference subtraction. Serially for each test compound, individual dilution samples were flowed over the immobilized SOS1 protein at a flow rate of 50 μL/minute to monitor the association with SOS1. Dissociation of bound test compound from the SOS1 protein was immediately monitored by flowing assay buffer over the sensor surface and monitoring the decrease in binding signal back to the baseline level seen in the absence of compound. This was repeated for all compound dilutions in each series. The binding level response for each test compound concentration was noted immediately prior to the end of the association phase, and a secondary plot generated showing binding response level versus test compound concentration generated for each compound dilution series.
# [2] = molecular target: T1, SOS1 catalytic domain (residues 564-1049); assay: Mode of Action Assay: inhibition of SOS1 nucleotide exchange activity (SOS1 TR-FRET IC50 Assay)
Kd [1] [nM],IC50 [2] [nM],SMILES
< 400,< 1000,C[C@@H](Nc1nc(Cl)nc2c1CN(C(=O)CN1CCOCC1)C2)c1cc(N)cc(C(F)(F)F)c1 [Example 89]
> 400,> 1000,C[C@@H](Nc1nc(Cl)nc2c1CN(C(=O)c1cnc3cc[nH]c3c1)C2)c1cc(N)cc(C(F)(F)F)c1 [Example 90]
> 400,> 1000,C[C@@H](Nc1nc(Cl)nc2c1CN(C(=O)c1ncc[nH]1)C2)c1cc(N)cc(C(F)(F)F)c1 [Example 95]
< 400,> 1000,C[C@@H](Nc1nc(Cl)nc2c1CN(C(=O)c1cnn(C3CCOCC3)c1)C2)c1cc(N)cc(C(F)(F)F)c1 [Example 96]
> 400,< 1000,C[C@@H](Nc1nc(Cl)nc2c1CN(C(=O)[C@H]1CC[C@@H](O)CC1)C2)c1cc(N)cc(C(F)(F)F)c1 [Example 99]
< 400,< 1000,C[C@@H](Nc1nc(Cl)nc2c1CN(C(=O)C1CN(C)C1)C2)c1cc(N)cc(C(F)(F)F)c1 [Example 100]
< 400,> 1000,Cc1cn2nnc(C(=O)N3Cc4nc(Cl)nc(N[C@H](C)c5cc(N)cc(C(F)(F)F)c5)c4C3)c2c(=O)[nH]1 [Example 103]
< 400,< 1000,"C[C@@H](Nc1nc(Cl)nc2c1CN(C(=O)C1CCOCC1)C2)c1cc(N)cc(C(F)(F)F)c1 [Example 116, N-[(1R)-1-[3-amino-5-(trifluoromethyl)phenyl]ethyl]-2-chloro-6-(oxane-4-carbonyl)-5H,6H,7H-pyrrolo[3,4-d]pyrimidin-4-amine]"
> 400,> 1000,"CNC(=O)N1Cc2nc(C)nc(N[C@H](C)c3cc(N)cc(C(F)(F)F)c3)c2C1 [Example 122, 4-{[(1R)-1-[3-amino-5-(trifluoromethyl)phenyl]ethyl]amino}-N,2-dimethyl-5H,6H,7H-pyrrolo[3,4-d]pyrimidine-6-carboxamide]"
< 400,< 1000,"CCOc1nc2c(c(N[C@H](C)c3cc(N)cc(C(F)(F)F)c3)n1)CN(C(=O)N1CCOCC1)C2 [Example 124, N-[(1R)-1-[3-amino-5-(trifluoromethyl)phenyl]ethyl]-2-ethoxy-6-(morpholine-4-carbonyl)-5H,6H,7H-pyrrolo[3,4-d]pyrimidin-4-amine]"
< 400,> 1000,"C[C@@H](Nc1nc(C(F)(F)F)nc2c1CN(C(=O)N1CCOCC1)C2)c1cc(N)cc(C(F)(F)F)c1 [Example 127, N-[(1R)-1-[3-amino-5-(trifluoromethyl)phenyl]ethyl]-6-(morpholine-4-carbonyl)-2-(trifluoromethyl)-5H,6H,7H-pyrrolo[3,4-d]pyrimidin-4-amine]"
> 400,> 1000,"C[C@@H](Nc1nc(OC2COC2)nc2c1CN(C(=O)N1CCOCC1)C2)c1cc(N)cc(C(F)(F)F)c1 [Example 133, N-[(1R)-1-[3-amino-5-(trifluoro-methyl)phenyl]ethyl]-6-(morpholine-4-carbonyl)-2-(oxetan-3-yl-oxy)-5H,6H,7H-pyrrolo[3,4-d]pyrimidin-4-amine]"
> 400,> 1000,"Cc1nc2c(c(N[C@H](C)c3cc(N)cc(C(F)(F)F)c3)n1)CN(C(=O)N1CCOCC1)CCC2 [Example 136, N-[(1R)-1-[3-amino-5-(trifluoromethyl)phenyl]ethyl]-2-methyl-6-(morpholine-4-carbonyl)-5H,6H,-7H,8H,9H-pyrimido[5,4-c]azepin-4-amine]"
< 400,< 1000,C[C@@H](Nc1nc(Cl)nc2c1CN(C(=O)N1CCCC13CCOCC3)C2)c1cc(N)cc(C(F)(F)F)c1 [Example 139]
< 400,< 1000,C[C@@H](Nc1nc(Cl)nc2c1CN(C(=O)N1CCOc3ccncc31)C2)c1cc(N)cc(C(F)(F)F)c1 [Example 141]
< 400,< 1000,C[C@@H]1CN(C(=O)N2Cc3nc(Cl)nc(N[C@H](C)c4cc(N)cc(C(F)(F)F)c4)c3C2)C[C@@H](C)N1 [Example 143]
< 400,> 1000,C[C@@H](Nc1nc(Cl)nc2c1CN(C(=O)N1CCc3ncccc3C1)C2)c1cc(N)cc(C(F)(F)F)c1 [Example 147]
> 400,< 1000,C[C@@H](Nc1nc(Cl)nc2c1CN(C(=O)NC1CC[C@H](N)C1)C2)c1cc(N)cc(C(F)(F)F)c1 (stereo partly drawn) [Example 150]

Kd [1] [nM],IC50 [2] [nM],SMILES
< 400,< 1000,COC[C@H]1CCCN1C(=O)N1Cc2nc(Cl)nc(N[C@H](C)c3cc(N)cc(C(F)(F)F)c3)c2C1 [Example 154]
< 400,< 1000,C[C@@H](Nc1nc(Cl)nc2c1CN(C(=O)N1CCC3(CC1)COC3)C2)c1cc(N)cc(C(F)(F)F)c1 [Example 159]
< 400,< 1000,C[C@@H](Nc1nc(Cl)nc2c1CN(C(=O)N1CCC(C)(O)CC1)C2)c1cc(N)cc(C(F)(F)F)c1 [Example 162]
< 400,< 1000,C[C@@H]1CN(C(=O)N2Cc3nc(Cl)nc(N[C@H](C)c4cc(N)cc(C(F)(F)F)c4)c3C2)C[C@H](C)O1 [Example 163]
< 400,< 1000,COc1ccc(C(=O)N2Cc3nc(Cl)nc(N[C@H](C)c4cc(N)cc(C(F)(F)F)c4)c3C2)cc1OC [Example 172]
> 400,> 1000,C[C@@H](Nc1nc(Cl)nc2c1CN(S(=O)(=O)c1cn[nH]c1)C2)c1cc(N)cc(C(F)(F)F)c1 [Example 173]
> 400,> 1000,O=C(N1CCOCC1)N1Cc2nc(Cl)nc(N[C@H](CO)c3cccc(C(F)(F)F)c3)c2C1 [Example 174]
> 400,> 1000,C[C@@H](Nc1nc(Cl)nc2c1CN(C(=O)c1cc3c(cn1)OCCO3)C2)c1cc(N)cc(C(F)(F)F)c1 [Example 175]
< 400,< 1000,C[C@@H](Nc1nc(Cl)nc2c1CN(S(=O)(=O)N1CCOCC1)C2)c1cccc(C(F)(F)CO)c1 [Example 178]
< 400,< 1000,C[C@@H](Nc1nc(Cl)nc2c1CN(S(=O)(=O)N1CCCC1)CC2)c1cc(N)cc(C(F)(F)F)c1 [Example 182]
< 400,< 1000,COC1(C(=O)N2Cc3nc(Cl)nc(N[C@H](C)c4cccc(C(F)F)c4F)c3C2)CCN(C(C)=O)CC1 [Example 345]
< 400,< 1000,CC(=O)N1CC(C)(C(=O)N2Cc3nc(Cl)nc(N[C@H](C)c4cccc(C(F)F)c4F)c3C2)C1 [Example 346]
< 400,< 1000,CC(=O)N1CC(F)(C(=O)N2Cc3nc(Cl)nc(N[C@H](C)c4cccc(C(F)F)c4F)c3C2)C1 [Example 347]
< 400,< 1000,C[C@@H](Nc1nc(Cl)nc2c1CN(C(=O)N1CCNCC1C(F)(F)F)C2)c1cc(N)cc(C(F)(F)F)c1 (stereo partly drawn) [Example 358]
< 400,< 1000,C[C@@H](Nc1nc(Cl)nc2c1CN(C(=O)N1CCNC(=O)C1)C2)c1cc(N)cc(C(F)(F)F)c1 [Example 367]
< 400,< 1000,C[C@@H](Nc1nc(Cl)nc2c1CN(C(=O)N1CCc3cccnc31)C2)c1cccc(C(F)(F)F)c1 [Example 369]
< 400,< 1000,C[C@@H](Nc1nc(Cl)nc2c1CN(C(=O)N1CCNc3ncccc31)C2)c1cccc(C(F)F)c1F [Example 425]
> 400,< 1000,C[C@@H](Nc1nc(Cl)nc2c1CN(C(=O)N1CCN(C)c3ncccc31)C2)c1cccc(C(F)F)c1F [Example 426]

# Source: patent US20230096028A1, “BICYCLIC HETEROCYCLYL COMPOUNDS AND USES THEREOF” (Revolution Medicines, Inc., priority 2019, published 2023)
